From patent publication US6017958A, “Method of treating malignant tumors with thyroxine analogues having no significant hormonal activity” (Octamer, Inc., priority 1997, dated 2000)
Read-outs that look alike come from different tables or passages of the source.

Key:
[1] = tested on: DU 145 (prostate cancer); test: Cytocidal action/growth inhibition, DU 145; type: cell-based; conditions: Homo sapiens
Experimental: (§1) Seven human cancer cell lines were obtained from the American Tissue Culture Collection (Rockville, Md.) and maintained in the recommended growth media. Cells were seeded into wells (2 cm^2) at a density of 2×10^4 cells/cm^2. Various concentrations of Compounds 1-13 were added to the media at the time of seeding.
(§2) The cultures were incubated for 72 hours at 37° C. (5% CO2 atmosphere). Following incubation, cells were detached with trypsin and counted in a hemocytometer.
(§3) I100 designates the concentration at which no viable cells remained; I50 the concentration at which 50% viable cells remained, as compared to a control.
(§4) E-ras 20 cells were cultured as reported, Bauer et al., 1996, "Modification of growth related enzymatic pathways and apparent loss of tumorigenicity of a ras-transformed bovine endothelial cell line by treatment with 5-iodo-6-amino-1,2-benzopyrone (INH2 BP)" Intl. J. Oncol. 8:239-252; HT-144 (melanoma), DU-145 (prostatic cancer), HeLa (cervical cancer), HL 60 (promyelocytic leukemia), MDA-MB-231 (mammary cancer), SK-Br-3 (mammary cancer), T47D (ductal mammary cancer), A559 (lung cancer) were obtained from American Type Culture Collection (Rockville, Md.) and cultured in prescribed media. The effect of DIME was tested in cultures with a starting cell density of 2×10^4 cells per cm^2 and comparison of the effect of DIME on cell growth (intact cells identified by Trypan blue exclusion) was assayed by direct cell counting after trypsinization in a hemocytometer 72 hours after drug addition.
(§5) For DIME-exposure experiments cells were seeded into 2 cm^2 wells at a density of 2×10^4 cells/cm^2. DIME at various concentrations was added to the medium at the time of seeding. The cell cultures were then incubated for 3 days (37° C. in 5% at CO2 atmosphere).

[2] = tested on: HT 144 (melanoma); test: Cytocidal action/growth inhibition, HT 144; type: cell-based; conditions: Homo sapiens
Experimental: as §1, §2, §3, §4, §5

[3] = tested on: MDA-MB-231 cells; test: Flow cytometry / M phase block; type: cell-based, human
Experimental: The MDA-MB-231 cell line was obtained from ATCC (Rockville, Md., USA) and cells were cultured in T-75 flasks at 37° C. in Minimum Essential Medium-alpha, supplemented with 10% FCS. In controls, not receiving DIME, 0.1 μg/ml colcemid was added to cultures for 4 hrs prior to the collection of metaphase-blocked cells and preparation of cell spreads. […] Cells (10^7) were isolated from T-75 trypsinization for 5 min with 0.025% trypsin, and sedimented by centrifugation, resuspended and kept in 10 ml of 75 mM KC1 at 37° C. for 10 min, resedimented, and fixed in 10 ml methanol-acetic acid, with four successive changes of methanol-acetic acid. An aliquot of the final cell suspension (100 μl) was dropped on ethanol-cleaned slides and air-dried.
Cells exposed to different treatments were grown to confluence, trypsinized, and washed with phosphate buffered saline (PBS). For nuclear analysis, cells were fixed in Vindelov Citrate cell buffer: sucrose 250 mM, trisodium citrate. 2H20 40 mM, DMSO 50 ml in 1000 ml solution, pH 7.6. Normal human lymphocytes obtained from blood were used as controls. Each cell sample and control was counted with a hemacytometer and the cell concentration was adjusted to 2×10^6 cells/ml. Two million cells from each cell line in a total volume of 2 ml were washed twice with fresh PBS, treated with 200 μg/ml RNAase at 37° C. for 30 min, and stained with 10 μg/ml propidium iodide for 45 min. Flow cytometric analysis was performed on a FACScan benchtop flow cytometer (Becton-Dickinson, San Jose, Calif., USA) equipped with an air-cooled argon laser tuned to 488 nm. Twenty thousand events were collected as six parameter list mode data for analysis and archival storage. Two light scatter parameters (forward and side), propidium iodide fluorescence measured at 575/26 nm and above 620 nm, and doublet discrimination by fluorescence pulse width and area were acquired at 1024 data channel resolution. Acquisition threshold was set on propidium iodide positive events above channel 100. Gating to exclude small debris, large clumps and cell doublets was done post acquisition.

[4] = tested on: E-ras cells; test: DNA cuts (TUNEL); type: cell-based, bovine; conditions: 2-10 μM, 18 hours
Experimental: E-ras cells (2×10^4 cells/cm^2) were treated with DIME 18 hours prior to the TUNEL assay.
Assay for DNA cuts, as a signal for apoptosis, was via the terminal deoxynucleotidyl transferase dUTP nick end labeling (TUNEL) reaction as specified by the manufacturer of the assay kit (Boehringer Mannheim, Indianapolis, Ind., USA, Cat. No. 168-4817).

Work on COC(=O)c1cc(I)c(Oc2ccc(OC)cc2)c(I)c1 [Compound 1, Methyl 3,5-diiodo-4-(4'-methoxyphenoxy)benzoate] yielded an IC50 ([1]; DU-145, 72 h, day 3, Table 11, read-out: I50 (day 3)) of 500 nM, an IC50 ([1]; DU-145, 72 h, Table 4, read-out: I50) of 500 nM and an IC100 ([1]; DU-145, 72 h, Table 4, read-out: I100 (no viable cells remained)) of 3.5 µM. It also gave an IC50 ([2]; HT-144, 72 h, day 3, Table 11, read-out: I50 (day 3)) of 500 nM, an IC50 ([2]; HT-144, 72 h, Table 4, read-out: I50) of 500 nM and an IC100 ([2]; HT-144, 72 h, Table 4, read-out: I100 (no viable cells remained)) of 4 µM. The “M phase block (nuclei with G2 content of DNA)” value ([3]; 18 hrs of drug exposure) was “nuclei with a G2 content of DNA had accumulated, indicating M phase block”, the “cell cycle block in M phase, comparison of DIME and colcemid” value ([3]; colcemid 0.1 μg/ml, 4 hrs) was “indistinguishable with respect to the cell cycle block in M phase” and the DNA breaks [4] was “drug concentration-dependent DNA breaks”.
